Measurements from PMC13352219, “Analysis of glutamine synthetase target‐site mutations and their role in endowing glufosinate‐ammonium resistance” (Pest Management Science, 2026).
Entries after “also recorded” stand apart in the source; their conditions may differ.

Experiments:
Assay type in all cases: biochemical
[1] = test system: Amaranthus palmeri cytosolic GS1.1 E192D; test: GS enzyme inhibition assay, GS1.1 E192D
Experimental: (§1) GS activity was determined spectrophotometrically following the Sigma‐Aldrich enzymatic assay protocol. The reaction couples the ATP‐dependent conversion of L‐glutamate and ammonium to L‐glutamine with pyruvate kinase (PK) and L‐lactate dehydrogenase (LDH), such that oxidation of β‐NADH to β‐NAD^+ can be monitored at 340 nm. Recombinant GS from A. palmeri was expressed in E. coli, purified by affinity chromatography, and quantified by the Bradford method using bovine serum albumin as standard. […] Reaction mixtures were equilibrated to 37°C and initiated by the addition of enzyme, and the decrease in absorbance at 340 nm was recorded for 5–10 min; only the linear portion of the curve was used for activity calculations. […] Activity was calculated using an extinction coefficient for NADH of 6.22 mM^−1 cm^−1 and expressed as units per mg protein, where one unit corresponds to the formation of 1 μmol of L‐glutamine in […] at pH 7.1 and 37 °C. […] Percent inhibition was calculated relative to untreated (positive) and no‐enzyme (negative) controls. […] Resistance factors were calculated by dividing the IC₅₀ of each mutant variant by that of wild‐type GS.

[2] = test system: Amaranthus palmeri cytosolic GS1.1 R316A; test: GS enzyme inhibition assay, GS1.1 R316A
Experimental: as §1

[3] = test system: Amaranthus palmeri cytosolic GS1.1 R291P; test: GS enzyme inhibition assay, GS1.1 R291P
Experimental: as §1

[4] = test system: Amaranthus palmeri cytosolic GS1.1 G245C; test: GS enzyme inhibition assay, GS1.1 G245C
Experimental: as §1

[5] = test system: Amaranthus palmeri cytosolic GS1.1 E131V; test: GS enzyme inhibition assay, GS1.1 E131V
Experimental: as §1

[6] = test system: Amaranthus palmeri cytosolic GS1.1 E131K; test: GS enzyme inhibition assay, GS1.1 E131K
Experimental: as §1

[7] = test system: Amaranthus palmeri GS2.2 G255D; test: GS enzyme inhibition assay, GS2.2 G255D; settings: full range of GFA concentrations tested (10^−8 M to 10^−2 M), listed as GFA
Experimental: as §1

[8] = test system: Amaranthus palmeri cytosolic GS1.1 R291G; test: GS enzyme inhibition assay, GS1.1 R291G
Experimental: as §1

[9] = test system: Amaranthus palmeri cytosolic GS1.1 R291H; test: GS enzyme inhibition assay, GS1.1 R291H
Experimental: as §1

[10] = test system: Amaranthus palmeri cytosolic GS1.1 G155F; test: GS enzyme inhibition assay, GS1.1 G155F
Experimental: as §1

[11] = test system: Amaranthus palmeri cytosolic GS1.1 S59N; test: GS enzyme inhibition assay, GS1.1 S59N
Experimental: as §1

[12] = test system: Amaranthus palmeri cytosolic GS1.1 Y158A; test: GS enzyme inhibition assay, GS1.1 Y158A
Experimental: as §1

[13] = test system: Amaranthus palmeri cytosolic GS1.1 K36A; test: GS enzyme inhibition assay, GS1.1 K36A
Experimental: as §1

[14] = test system: Amaranthus palmeri cytosolic GS1.1 T60Q; test: GS enzyme inhibition assay, GS1.1 T60Q
Experimental: as §1

[15] = test system: Amaranthus palmeri cytosolic GS1.1 K165S; test: GS enzyme inhibition assay, GS1.1 K165S
Experimental: as §1

[16] = test system: Amaranthus palmeri cytosolic GS1.1 H249N; test: GS enzyme inhibition assay, GS1.1 H249N
Experimental: as §1

[17] = test system: Amaranthus palmeri cytosolic GS1.1 R291C; test: GS enzyme inhibition assay, GS1.1 R291C
Experimental: as §1

[18] = test system: Amaranthus palmeri cytosolic GS1.1 E131A; test: GS enzyme inhibition assay, GS1.1 E131A
Experimental: as §1

[19] = test system: Amaranthus palmeri cytosolic GS1.1 E131D; test: GS enzyme inhibition assay, GS1.1 E131D
Experimental: as §1

[20] = test system: Amaranthus palmeri cytosolic GS1.1 R311P; test: GS enzyme inhibition assay, GS1.1 R311P
Experimental: as §1

[21] = test system: Amaranthus palmeri cytosolic GS1.1 G162N; test: GS enzyme inhibition assay, GS1.1 G162N
Experimental: as §1

[22] = test system: Amaranthus palmeri cytosolic GS1.1 A163Y; test: GS enzyme inhibition assay, GS1.1 A163Y
Experimental: as §1

[23] = test system: Amaranthus palmeri cytosolic GS1.1 Y55L; test: GS enzyme inhibition assay, GS1.1 Y55L
Experimental: as §1

[24] = read-out: Glufosinate‐ammonium IC50

## CP(=O)(O)CCC(N)C(=O)O (stereo not drawn) [Glufosinate‐ammonium]
[1]; 10 000 μM
  Glufosinate‐ammonium % Inhibition at saturation 10 000 μM: 0%
[1]; [24]
  IC50: > 10000 µM
[2]; IC50 variant / IC50 WT
  Resistance index (RI): 14.4
[2]; [24]
  IC50: 313 µM
[3]; 10 000 μM
  Glufosinate‐ammonium % Inhibition at saturation 10 000 μM: 0%
[3]; [24]
  IC50: > 10000 µM
[4]; 10 000 μM
  Glufosinate‐ammonium % Inhibition at saturation 10 000 μM: 0%
[4]; [24]
  IC50: > 10000 µM
[5]; 10 000 μM
  Glufosinate‐ammonium % Inhibition at saturation 10 000 μM: 6.6%
[5]; [24]
  IC50: > 10000 µM
[6]; 10 000 μM
  Glufosinate‐ammonium % Inhibition at saturation 10 000 μM: 0%
[6]; [24]
  IC50: > 10000 µM
[7]
  inhibition by GFA: completely insensitive; also recorded: no measurable inhibition; also recorded: no detectable inhibition
[8]; 10 000 μM
  Glufosinate‐ammonium % Inhibition at saturation 10 000 μM: 0%
[8]; [24]
  IC50: > 10000 µM
[9]; 10 000 μM
  Glufosinate‐ammonium % Inhibition at saturation 10 000 μM: 0%
[9]; [24]
  IC50: > 10000 µM
[10]; IC50 variant / IC50 WT
  Resistance index (RI): 11.7
[10]; [24]
  IC50: 254 µM
[11]; IC50 variant / IC50 WT
  Resistance index (RI): 1.8
[11]; [24]
  IC50: 39.5 µM
[12]; IC50 variant / IC50 WT
  Resistance index (RI): 64.6
[12]; [24]
  IC50: 1400 µM
[13]; IC50 variant / IC50 WT
  Resistance index (RI): 11.5
[13]; [24]
  IC50: 248 µM
[14]; IC50 variant / IC50 WT
  Resistance index (RI): 16.9
[14]; [24]
  IC50: 366 µM
[15]; IC50 variant / IC50 WT
  Resistance index (RI): 0.3
[15]; [24]
  IC50: 7.6 µM
[16]; 10 000 μM
  Glufosinate‐ammonium % Inhibition at saturation 10 000 μM: 17%
[16]; [24]
  IC50: > 10000 µM
[17]; 10 000 μM
  Glufosinate‐ammonium % Inhibition at saturation 10 000 μM: 0%
[17]; [24]
  IC50: > 10000 µM
[18]; 10 000 μM
  Glufosinate‐ammonium % Inhibition at saturation 10 000 μM: 8.5%
[18]; [24]
  IC50: > 10000 µM
[19]; 10 000 μM
  Glufosinate‐ammonium % Inhibition at saturation 10 000 μM: 48%
[19]; [24]
  IC50: > 10000 µM
[20]; 10 000 μM
  Glufosinate‐ammonium % Inhibition at saturation 10 000 μM: 0%
[20]; [24]
  IC50: > 10000 µM
[21]; IC50 variant / IC50 WT
  Resistance index (RI): 22.6
[21]; [24]
  IC50: 489 µM
[22]; IC50 variant / IC50 WT
  Resistance index (RI): 2.5
[22]; [24]
  IC50: 54 µM
[23]; IC50 variant / IC50 WT
  Resistance index (RI): 0.8
[23]; [24]
  IC50: 17 µM
